Test results from patent publication US5100892A, “Dihydropyridine vasodilator agents” (Glaxo Inc., priority 1990, dated 1992).

System: Spontaneously Hypertensive Rats
Test: Spontaneously Hypertensive Rat (SHR) Test, hemodynamics in anesthetized rats
Assay type: in vivo, Spontaneously Hypertensive Rat (Sprague Dawley)
Conditions: for HR (Heart Rate: change from basal) / LVPT (time for Left Ventricular Pressure to decay from peak to 50%, % of basal) / MBP (Mean Blood Pressure: change from basal) / RT64 (change in time from maximal relaxation, % of basal) / dP/dT40 (change in rate of systolic pressure increase of left ventricle measured at 40 mm Hg from basal): anesthetized SHR
Method: Male Retired Breeder Spontaneously Hypertensive Rats (SHR) (Sprague Dawley, 250-350 g) are anesthetized by i.p. injection of Sodium Thiopental 50 mg/kg. A catheter is inserted into the duodenum for maintenance of anesthesia throughout the experiment. A tube is inserted through a lateral incision in the trachea. The left carotid artery is exposed and a Millar SPR-249 (2-F) pressure probe is inserted and passed into the left ventricle of the heart. Left ventricular pressure (LVP), the first differential of the LVP (+dP/dT,-dP/dT), the left ventricular end diastolic pressure (LVEDP) and the differential of the increase in LVP measured at a constant pressure of 40 mm Hg (dP/dT40) are measured via this probe. In addition to these parameters, two indices of myocardial diastolic relaxation are measured namely the RT64 (time in msec from the peak derivative of maximal relaxation to 64% of that value) and the Left Ventricular Pressure Time Constant (LVPT), the half-time for decay of the LVP from peak pressure to 50% of that pressure. […] Results also are shown graphically on a Gould RS3800 Recorder. A saline filled cannula is passed into the femoral vein for infusion of drugs and one is placed into the femoral artery for measurement and recording or arterial blood pressure (Statham P23Db pressure transducer). From this signal the diastolic, systolic and mean blood pressure are derived as well as the heart rate. After surgery, the preparation is left to stabilize for 45 minutes after which compounds, dissolved in polyethylene glycol, are slowly infused with a Sage Instruments Infusion pump into the femoral vein. […] After completion of the last infusion, hemodynamic parameters are observed over 30 min and then a standard dose of 3.0 mg/kg milrinone is infused (over 5 min) to test preparation responsiveness. In the SHR, the following results were obtained for several known cardiovascular agents and for the compound of Examples 10,11,15 and 16.

SMILES	HR (Heart Rate: change from basal) (10 mg/kg i.v.)	LVPT (time for Left Ventricular Pressure to decay from peak to 50%, % of basal) (10 mg/kg i.v.)	MBP (Mean Blood Pressure: change from basal) (10 mg/kg i.v.)	RT64 (change in time from maximal relaxation, % of basal) (10 mg/kg i.v.)	dP/dT40 (change in rate of systolic pressure increase of left ventricle measured at 40 mm Hg from basal) (10 mg/kg i.v.)	effect on blood pressure (in words) (10 mg/kg i.v., SHR)	effect on dP/dT40 (in words) (10 mg/kg i.v., SHR)	effect on heart rate (in words) (10 mg/kg i.v., SHR)	effect on myocardial relaxation time constants (in words) (10 mg/kg i.v., SHR)	other results
COC(=O)C1=C(C)NC(C)=C(C(=O)OCCNC(=O)COc2ccc(-c3cc(C#N)c(=O)[nH]c3C)cc2)C1c1cccc(Cl)c1Cl (racemic) [Example 11, (±)-2,6-dimethyl-3-carbomethoxy-4-(2,3-dichlorophenvl)-5-{4-[1,2-dihydro-2-oxo-3-cyano-6-methyl-5(1H)-pyridyl]phenoxymethylenecarboxamindoethyloxycarbonyl}-1,4-dihydropyridine]	0%	-31%	-45.8%	-34.5%	-9%	–	–	–	–	HR (Heart Rate: change from basal) (0.3 mg/kg i.v.): 2.8%; LVPT (time for Left Ventricular Pressure to decay from peak to 50%, % of basal) (0.3 mg/kg i.v.): -14.4%; MBP (Mean Blood Pressure: change from basal) (0.3 mg/kg i.v.): -12.5%; RT64 (change in time from maximal relaxation, % of basal) (0.3 mg/kg i.v.): -15.7%; dP/dT40 (change in rate of systolic pressure increase of left ventricle measured at 40 mm Hg from basal) (0.3 mg/kg i.v.): 4.5%; HR (Heart Rate: change from basal) (1.0 mg/kg i.v.): 1.7%; LVPT (time for Left Ventricular Pressure to decay from peak to 50%, % of basal) (1.0 mg/kg i.v.): -22.4%; MBP (Mean Blood Pressure: change from basal) (1.0 mg/kg i.v.): -16.3%; RT64 (change in time from maximal relaxation, % of basal) (1.0 mg/kg i.v.): -22.8%; dP/dT40 (change in rate of systolic pressure increase of left ventricle measured at 40 mm Hg from basal) (1.0 mg/kg i.v.): 6.9%; HR (Heart Rate: change from basal) (3.0 mg/kg i.v.): -0.5%; LVPT (time for Left Ventricular Pressure to decay from peak to 50%, % of basal) (3.0 mg/kg i.v.): -34%; MBP (Mean Blood Pressure: change from basal) (3.0 mg/kg i.v.): -36.7%; RT64 (change in time from maximal relaxation, % of basal) (3.0 mg/kg i.v.): -26%; dP/dT40 (change in rate of systolic pressure increase of left ventricle measured at 40 mm Hg from basal) (3.0 mg/kg i.v.): 3.5%; hemodynamic profile compared with Example 10 (in words) (i.v., SHR, compared with Example 10): A similar profile was observed
COC(=O)C1=C(C)NC(C)=C(C(=O)OCCNC(=O)COc2ccc(-c3cc(C#N)c(=O)[nH]c3C)cc2)C1c1cccc([N+](=O)[O-])c1 (single isomer, unassigned; (+)) [Example 15, (+)-2,6-dimethyl-3-carbomethoxy-4-(3-nitrophenyl)-5-{4-[1,2-dihydro-2-oxo-3-cyano-b 6-methyl-5(1H)-pyridyl]phenoxymethylenecarboxamidoethyloxycarbonyl}-1,4-dihydropyridine]	-1.9%	-4.2%	-39.8%	1.6%	11.9%	hypotension	slight increase in dP/dT40	no change in heart rate	little effect	–
COC(=O)C1=C(C)NC(C)=C(C(=O)OCCNC(=O)COc2ccc(-c3cc(C#N)c(=O)[nH]c3C)cc2)C1c1cccc([N+](=O)[O-])c1 (single isomer, unassigned; (-)) [Example 16, (-)-2,6-dimethyl-3-carbomethoxy-4-(3-nitrophenyl)-5-{4-[1,2-dihydro-2-oxo-3-cyano-6-methyl-5(1H)-pyridyl]phenoxymethylenecarboxamidoethyloxycarbonyl}-1,4-dihydropyridine]	-1.5%	-18%	-34.9%	-17.6%	5%	hypotension	slight increase in dP/dT40	no change in heart rate	marked reduction in myocardial relaxation time constants	–
